Where a SMILES comes first, the peptide text is derived from it.
Assays:
NEP = target: T1, NEP (Rattus norvegicus, UniProt P07861); test: Kinetic analysis of inhibition of substance P catabolism by rat renal membranes; assay type: biochemical
T1 construct: peripheral tissue membrane preparations that are known to be enriched in NEP-peptidase; from tissue; host or cells: rat renal outer medulla/kidney, intestine mucosa, placenta, prostate, dental and bone tissues, submandibular gland (membrane preparations)
T1 sequence (P07861 2-750): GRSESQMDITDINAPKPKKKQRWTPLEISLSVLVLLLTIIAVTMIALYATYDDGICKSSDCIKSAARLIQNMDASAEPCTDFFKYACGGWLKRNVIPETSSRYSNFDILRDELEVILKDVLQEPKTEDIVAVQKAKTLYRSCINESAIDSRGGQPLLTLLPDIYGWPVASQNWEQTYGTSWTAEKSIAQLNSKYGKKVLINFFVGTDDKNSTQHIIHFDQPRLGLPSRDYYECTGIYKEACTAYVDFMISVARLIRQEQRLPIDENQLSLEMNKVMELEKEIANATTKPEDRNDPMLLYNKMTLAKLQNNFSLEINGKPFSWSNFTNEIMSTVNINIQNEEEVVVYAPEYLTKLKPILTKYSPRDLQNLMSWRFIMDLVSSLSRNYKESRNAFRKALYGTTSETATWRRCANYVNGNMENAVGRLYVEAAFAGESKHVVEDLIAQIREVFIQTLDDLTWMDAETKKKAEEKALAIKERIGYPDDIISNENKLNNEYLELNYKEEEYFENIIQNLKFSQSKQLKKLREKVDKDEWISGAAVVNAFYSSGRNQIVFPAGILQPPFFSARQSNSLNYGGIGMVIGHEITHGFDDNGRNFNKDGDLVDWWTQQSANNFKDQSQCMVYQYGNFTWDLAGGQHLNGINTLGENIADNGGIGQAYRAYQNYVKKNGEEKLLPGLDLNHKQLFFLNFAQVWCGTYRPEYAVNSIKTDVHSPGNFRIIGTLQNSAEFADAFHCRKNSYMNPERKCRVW
Description: The inhibitory potency of sialophin was measured by using substance P as substrate at concentrations indicated for A and B, and at 14-24 nM (blank triangle) or 56-105 nM (black triangle) for FIG. 5-C. Concentrations of inhibitor for FIG. 5-A and FIG. 5-B were 0 (black circles), 1500 (blank circle) and 4500 nM (blank diamond). Each point of the untransformed and double reciprocal plots represents the mean of 2 independent determinations of duplicate. Experiments were performed at 25° C. in 250 μl Tris-HCl buffer (50 mM pH 7.4) under initial velocity measurement conditions.
In order to determine inhibitor modality, all the measures of initial velocity of the renal enzymatic reaction were plotted versus substrate concentration for several fixed inhibitor concentrations or versus inhibitor concentration for fixed substrate concentrations.

male rats = test: Pin pain test; assay type: in vivo, rat
Description: The 3-min test session was performed 5 min after intravenous. rat tail vein administration of sialorphin or its vehicle. Naloxone (0.3 mg per kg body weight) was injected subcutaneously 15 min before sialorphin administration. Time in centre field sector (FIG. 6-C) (central square of the open-field without pin) and activity (FIGS. 6-A and 6-B) in peripheral squares (overlayed with pins) during the 3-min test session. Each value represents the mean±sem of 8 animals per group. […] Control group corresponded to pain response in vehicle-treated rats. 50 μg/kg sialorphin, 100 μg/kg sialorphin, 100 μg/kg sialorphin plus naloxone 0.3 mg/kg.
To extend the insight into the in vivo possible antinociceptive property of sialorphin through enkephalin-degrading enzyme inhibition, its effects were assessed in rat model of pain, i.e. the pin pain test, (Hebert et al. (1999) Physiology & Behavior 67, 99-105) in which the various behavioural parameters of pain responses were recorded with a 3-min cutoff time.
The in vivo activity of sialorphin was tested on the pin pain assay using male rats (350-400 g, Charles Rivers). The experimental device consists in an open-field (45×45×40 cm) which is divided into nine equal squares (150×150 mm), eight of them are peripheral and one is central. The peripheral squares are overlayed with stainless steel pins (2/cm2, length 8 mm and diameter 0.6 mm). The test consisted in placing the rat in the central square of the open-field and recording its different behaviours (cut-off time, 3 min). Two days before the pain test, the rats were familiarised with the experimental device without pins for 20 min, so as to reduce the stress linked to the spatial neophobia. All statistical analyses were carried out using the Statview 5 statistical package.

[1] = 100 μg per kg intravenous, 3-min trial, n=8, mean±sem

Structure (SMILES): N=C(N)NCCC[C@H](NC(=O)[C@@H]1CCCN1C(=O)[C@H](CC(N)=O)NC(=O)[C@H](Cc1c[nH]cn1)NC(=O)[C@@H](N)CCC(N)=O)C(=O)O [sialorphin, Gln-His-Asn-Pro-Arg] (H-QHNPR-OH; N-terminus and C-terminus assumed)
- raising of the apparent Km of the enzyme for substrate (NEP; 0, 1500 and 4500 nM inhibitor, substance P substrate, rat renal membranes): 2-5 fold
- inhibitor modality (NEP; untransformed, double-reciprocal and Dixon plots, [3H] substance P, renal membrane, 25° C.): competitive inhibition
- frequency of crossings peripheral squares (male rats; 100 μg per kg intravenous, 3-min trial 5 min after administration, n=8, mean±sem): 11.13±1.43
- number of audible vocalisation responses (male rats; [1]): 0.25±0.16
- number of escape responses (male rats; [1]): 0.13±0.13
- rearings on peripheral squares (male rats; [1]): 3.88±0.83
- analgesia (male rats; 100 μg/kg given intravenously): 74-97%
- time in the central area of the open-field (male rats; sialorphin intravenous alone, second test trial, 3-min test): 57.75 ± 21.30 s

Source: patent US7625713B2, “Process for identifying a ligand that binds to the NEP binding site for the SMR1 pentapeptide” (Institut Pasteur, priority 2000, dated 2009)
